One test deals with T1, Kv1.6 (Homo sapiens, UniProt P17658).
T1 construct: expressed in transfected cells; host or cells: Chinese Hamster Ovary (CHO)
Briefly: cell-based. The note with it: for Selectivity Kv1.6/Kv1.3: ratio IC50[Kv1.6]/IC50[Kv1.3].

Test [1] has as its target T2, human Kv1.3 voltage-gated K+ channel (Homo sapiens, UniProt P22001).
T2 construct: host or cells: CHO-DUKX
Kind of test: cell-based.

In the next test the target is T3, Kv1.1 (Homo sapiens, UniProt Q09470).
T3 construct: expressed in transfected cells; host or cells: Chinese Hamster Ovary (CHO)
Briefly: cell-based. The note with it: for Selectivity Kv1.1/Kv1.3: ratio IC50[Kv1.1]/IC50[Kv1.3].

A further test deals with T4, Kv1.2 (Homo sapiens, UniProt P16389).
T4 construct: expressed in transfected cells; host or cells: Chinese Hamster Ovary (CHO)
Briefly: cell-based.

In another test the target is T5, Kv1.3 (Homo sapiens, UniProt P22001).
T5 construct: expressed in transfected cells; host or cells: Chinese Hamster Ovary (CHO)
Briefly: cell-based.

The target in another test is Rat whole blood (Rattus norvegicus, UniProt P15384).
The mark [2] stands for this setting: CHO cells, whole-cell patch clamp, read-out: Potency IC50 (nM) Kv1.6.
Where [3] appears, read: inhibition of thallium flux, CHO-DUKX cells with human Kv1.3, read-out: IC50.
[4] abbreviates: CHO cells, whole-cell patch clamp, read-out: Potency IC50 (nM) Kv1.1.
The mark [5] stands for this setting: CHO cells, whole-cell patch clamp, read-out: Potency IC50 (nM) Kv1.2.
[6] abbreviates: CHO cells, whole-cell patch clamp, read-out: Potency IC50 (nM) Kv1.3.

Structures are written as SMILES. Where two headings read alike, the source gives them in different places. Bridge positions count the residues as written; N and C are the ends. Square brackets hold non-standard residues; d marks the D form. Peptide text beside a SMILES is read from it. Nle = CCCC[C@H](N)C(=O)O Bounds are passed on as bounds.

The results in this text go back to US11780893B2, “Kv1.3 blockers” (Zealand Pharma A/S, priority 2019, dated 2023).

As usually defined, the IC50 is the concentration that gives 50% inhibition.

T3 sequence (Q09470 whole entry): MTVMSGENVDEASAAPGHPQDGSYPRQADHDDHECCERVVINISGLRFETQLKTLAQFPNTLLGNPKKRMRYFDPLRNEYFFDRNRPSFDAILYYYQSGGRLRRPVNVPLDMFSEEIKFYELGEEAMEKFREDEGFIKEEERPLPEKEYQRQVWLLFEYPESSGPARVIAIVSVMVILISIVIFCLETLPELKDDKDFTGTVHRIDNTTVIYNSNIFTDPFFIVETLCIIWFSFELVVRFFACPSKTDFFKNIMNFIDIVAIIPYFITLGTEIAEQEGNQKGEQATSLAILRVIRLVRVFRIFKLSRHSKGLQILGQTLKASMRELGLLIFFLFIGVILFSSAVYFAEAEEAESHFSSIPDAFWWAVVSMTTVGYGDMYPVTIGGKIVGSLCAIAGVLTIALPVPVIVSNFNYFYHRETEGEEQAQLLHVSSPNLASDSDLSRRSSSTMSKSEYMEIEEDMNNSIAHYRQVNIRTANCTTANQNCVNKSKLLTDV
T4 sequence (P16389 whole entry): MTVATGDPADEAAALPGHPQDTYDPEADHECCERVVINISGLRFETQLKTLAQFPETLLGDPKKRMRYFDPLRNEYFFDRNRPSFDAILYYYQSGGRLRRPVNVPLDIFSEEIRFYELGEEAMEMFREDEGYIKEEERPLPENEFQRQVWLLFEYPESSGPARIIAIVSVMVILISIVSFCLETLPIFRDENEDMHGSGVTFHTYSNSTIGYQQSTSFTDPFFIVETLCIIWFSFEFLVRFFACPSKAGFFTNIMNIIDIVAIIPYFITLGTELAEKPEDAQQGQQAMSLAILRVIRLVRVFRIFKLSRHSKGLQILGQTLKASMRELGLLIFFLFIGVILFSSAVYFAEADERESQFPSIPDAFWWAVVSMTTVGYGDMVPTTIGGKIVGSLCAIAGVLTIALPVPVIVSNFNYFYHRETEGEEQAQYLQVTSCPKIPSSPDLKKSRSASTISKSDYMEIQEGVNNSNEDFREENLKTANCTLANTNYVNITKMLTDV
T1 sequence (P17658 whole entry): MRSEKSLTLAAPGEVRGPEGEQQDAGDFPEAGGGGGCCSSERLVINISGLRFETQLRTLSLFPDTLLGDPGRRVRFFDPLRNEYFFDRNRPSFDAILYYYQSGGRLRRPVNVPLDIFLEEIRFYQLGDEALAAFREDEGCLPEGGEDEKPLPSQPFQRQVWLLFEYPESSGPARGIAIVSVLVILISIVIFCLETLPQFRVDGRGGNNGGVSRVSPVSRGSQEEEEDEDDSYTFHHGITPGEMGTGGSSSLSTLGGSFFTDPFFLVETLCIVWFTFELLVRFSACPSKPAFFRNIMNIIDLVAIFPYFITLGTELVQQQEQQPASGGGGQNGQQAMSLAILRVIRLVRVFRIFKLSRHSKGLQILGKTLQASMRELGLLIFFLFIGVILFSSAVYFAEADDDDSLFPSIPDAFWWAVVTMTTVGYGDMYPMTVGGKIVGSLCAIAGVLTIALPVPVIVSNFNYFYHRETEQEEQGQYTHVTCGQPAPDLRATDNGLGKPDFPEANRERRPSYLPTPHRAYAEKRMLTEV
T5 sequence (P22001 whole entry): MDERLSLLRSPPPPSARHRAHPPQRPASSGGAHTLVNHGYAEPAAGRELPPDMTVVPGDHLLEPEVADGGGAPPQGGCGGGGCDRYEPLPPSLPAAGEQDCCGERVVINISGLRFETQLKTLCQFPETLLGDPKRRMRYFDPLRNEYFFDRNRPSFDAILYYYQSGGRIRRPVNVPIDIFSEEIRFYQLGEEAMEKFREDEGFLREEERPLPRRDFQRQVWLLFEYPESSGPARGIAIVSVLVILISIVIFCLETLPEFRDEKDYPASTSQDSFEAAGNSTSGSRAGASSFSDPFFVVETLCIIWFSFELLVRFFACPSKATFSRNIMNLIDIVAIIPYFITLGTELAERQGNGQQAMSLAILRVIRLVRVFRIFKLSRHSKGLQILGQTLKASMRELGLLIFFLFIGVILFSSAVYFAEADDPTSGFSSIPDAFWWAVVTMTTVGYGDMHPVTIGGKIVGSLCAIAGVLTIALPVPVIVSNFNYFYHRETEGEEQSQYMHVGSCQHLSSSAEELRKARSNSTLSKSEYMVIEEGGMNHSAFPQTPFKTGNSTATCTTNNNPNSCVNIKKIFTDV
T2 sequence (P22001 whole entry): as above
Sequence of Rat whole blood (P15384 whole entry): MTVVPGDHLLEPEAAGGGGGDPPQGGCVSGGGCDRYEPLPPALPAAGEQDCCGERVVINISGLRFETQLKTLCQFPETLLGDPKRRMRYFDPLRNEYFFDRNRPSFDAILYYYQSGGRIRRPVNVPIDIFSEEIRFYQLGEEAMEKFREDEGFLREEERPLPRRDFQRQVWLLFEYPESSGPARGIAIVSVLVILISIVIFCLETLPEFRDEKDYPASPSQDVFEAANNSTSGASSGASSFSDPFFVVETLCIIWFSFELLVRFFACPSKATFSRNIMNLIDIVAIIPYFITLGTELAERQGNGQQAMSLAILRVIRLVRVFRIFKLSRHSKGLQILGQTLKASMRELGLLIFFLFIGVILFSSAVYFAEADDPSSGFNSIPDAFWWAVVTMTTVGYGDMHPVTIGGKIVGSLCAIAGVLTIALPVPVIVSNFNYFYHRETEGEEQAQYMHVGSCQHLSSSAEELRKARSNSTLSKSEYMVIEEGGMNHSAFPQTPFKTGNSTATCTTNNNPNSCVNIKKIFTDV

Consider `CC[C@H](C)[C@@H]1NC(=O)[C@H](C)NC(=O)[C@H](CCCCN)NC(=O)[C@H](CCCCN)NC(=O)[C@@H]2CSSC[C@@H](C(=O)N[C@@H](Cc3ccc(O)cc3)C(=O)N3CCC[C@H]3C(=O)N[C@@H](CCCNC(=N)N)C(N)=O)NC(=O)[C@H](CCCCN)NC(=O)[C@@H]3CSSC[C@H](NC(=O)[C@H](CCC(=O)O)NC(=O)[C@H](C(C)C)NC(=O)[C@H](CO)NC(=O)[C@H](C)NC(=O)[C@H](CO)NC(=O)[C@@H](NC(=O)[C@H](CCCNC(=N)N)NC(=O)[C@H](CCSC)NC(=O)[C@H](CC(=O)O)NC(=O)[C@H](CCSC)NC(=O)[C@@H](N)CC(N)=O)CSSC[C@H](NC(=O)[C@H](CCCCN)NC(=O)CNC(=O)[C@H](Cc4ccccc4)NC(=O)[C@H]([C@@H](C)CC)NC(=O)[C@H](CO)NC(=O)CNC1=O)C(=O)N[C@@H](CCSC)C(=O)N[C@@H](CC(N)=O)C(=O)N[C@@H](CCCCN)C(=O)N[C@@H](CCCCN)C(=O)N3)C(=O)N[C@@H](CCCCN)C(=O)N[C@@H](CCC(N)=O)C(=O)N[C@@H](CCCCN)C(=O)N2` [Compound 19] (H-NMDMRCSASVECKQKCKKAIGSIFGKCMNKKCKCYPR-NH2; disulfide 6-27, 12-32, 16-34), for which the IC50 at Kv1.6 (setting [2]) is 435 nM; in test [1] (setting [3]), 0.12 nM; at Kv1.1 (setting [4]), over 3000 nM; at Kv1.2 (setting [5]), 45 nM; at Kv1.3 (setting [6]), 0.22 nM; at Rat whole blood it was at most 1 nM. Moreover, the “Selectivity Kv1.1/Kv1.3” value at Kv1.1 was over 13500.
For the compound `CC[C@H](C)[C@@H]1NC(=O)[C@H](C)NC(=O)[C@H](CCCCN)NC(=O)[C@H](CC(C)C)NC(=O)[C@@H]2CSSC[C@@H](C(=O)N[C@@H](Cc3ccc(O)cc3)C(=O)N3CCC[C@H]3C(=O)N[C@@H](CCCNC(=N)N)C(N)=O)NC(=O)[C@H](CCCCN)NC(=O)[C@@H]3CSSC[C@H](NC(=O)[C@H](CCC(=O)O)NC(=O)[C@H](C(C)C)NC(=O)[C@H](CO)NC(=O)[C@H](C)NC(=O)[C@H](CO)NC(=O)[C@@H](NC(=O)[C@H](CCCNC(=N)N)NC(=O)[C@H](CCSC)NC(=O)[C@H](CC(=O)O)NC(=O)[C@H](CCSC)NC(=O)[C@@H](N)CC(N)=O)CSSC[C@H](NC(=O)[C@H](CCCCN)NC(=O)CNC(=O)[C@H](Cc4ccccc4)NC(=O)[C@H]([C@@H](C)CC)NC(=O)[C@H](CO)NC(=O)[C@H](CCCNC(=N)N)NC1=O)C(=O)N[C@@H](CCSC)C(=O)N[C@@H](CC(N)=O)C(=O)N[C@@H](CCCCN)C(=O)N[C@@H](CCCCN)C(=O)N3)C(=O)N[C@@H](CCCCN)C(=O)N[C@@H](CCC(N)=O)C(=O)N[C@@H](CCCCN)C(=O)N2` [Compound 21] (H-NMDMRCSASVECKQKCLKAIRSIFGKCMNKKCKCYPR-NH2; disulfide 6-27, 12-32, 16-34), the IC50 is 626 nM at Kv1.6 (setting [2]); 0.12 nM in test [1] (setting [3]); over 3000 nM on Kv1.1 (setting [4]); 57 nM at Kv1.2 (setting [5]); 0.22 nM on Kv1.3 (setting [6]); at most 1 nM against Rat whole blood. For the same compound, the “Selectivity Kv1.1/Kv1.3” value on Kv1.1 was over 13700.
As for `CCCC[C@@H]1NC(=O)[C@@H]2CSSC[C@H](NC(=O)[C@H](CCCNC(=N)N)NC(=O)[C@H](CCCC)NC(=O)[C@H](CCC(=O)O)NC(=O)[C@@H](NC(=O)[C@@H]3CCCN3)[C@@H](C)CC)C(=O)N[C@@H](CO)C(=O)N[C@@H](C)C(=O)N[C@@H](CO)C(=O)N[C@@H](C(C)C)C(=O)N[C@@H](CCC(=O)O)C(=O)N[C@H]3CSSC[C@H](NC(=O)[C@H](CCCCN)NC(=O)[C@H](CCCCN)NC(=O)[C@H](CC(N)=O)NC1=O)C(=O)N[C@@H](CCCCN)C(=O)N[C@H](C(=O)N[C@@H](Cc1ccc(O)cc1)C(=O)N1CCC[C@H]1C(=O)N[C@@H](CCCNC(=N)N)C(=O)O)CSSC[C@H](NC(=O)[C@H](CCCCN)NC(=O)[C@H](CCC(N)=O)NC(=O)[C@H](CCCCN)NC3=O)C(=O)N[C@@H](CC(C)C)C(=O)N[C@@H](CCCCN)C(=O)N[C@@H](C)C(=O)N[C@@H]([C@@H](C)CC)C(=O)NCC(=O)N[C@@H](CO)C(=O)N[C@@H]([C@@H](C)CC)C(=O)N[C@@H](Cc1ccccc1)C(=O)NCC(=O)N[C@@H](CCCCN)C(=O)N2` [Compound 96] (H-PIE[Nle]RCSASVECKQKCLKAIGSIFGKC[Nle]NKKCKCYPR-OH; disulfide 6-27, 12-32, 16-34), the IC50 at Kv1.6 was over 3000 nM; in test [1], 0.15 nM; at Kv1.1, over 3000 nM; against Kv1.2 it was 1760 nM; at Kv1.3, 0.39 nM.
Take `CCCC[C@@H]1NC(=O)[C@@H]2CSSC[C@H](N)C(=O)N[C@@H](CO)C(=O)N[C@@H](C)C(=O)N[C@@H](CO)C(=O)N[C@@H](C(C)C)C(=O)N[C@@H](CCC(=O)O)C(=O)N[C@H]3CSSC[C@H](NC(=O)[C@H](CCCCN)NC(=O)[C@H](CCCCN)NC(=O)[C@H](CC(N)=O)NC1=O)C(=O)N[C@@H](CCCCN)C(=O)N[C@H](C(=O)N[C@@H](Cc1ccc(O)cc1)C(=O)N1CCC[C@H]1C(=O)N[C@@H](CCCNC(=N)N)C(N)=O)CSSC[C@H](NC(=O)[C@H](CCCCN)NC(=O)[C@H](CCC(N)=O)NC(=O)[C@H](CCCCN)NC3=O)C(=O)N[C@@H](CC(C)C)C(=O)N[C@@H](CCCCN)C(=O)N[C@@H](C)C(=O)N[C@@H]([C@@H](C)CC)C(=O)NCC(=O)N[C@@H](CO)C(=O)N[C@@H]([C@@H](C)CC)C(=O)N[C@@H](Cc1ccccc1)C(=O)NCC(=O)N[C@@H](CCCCN)C(=O)N2` [Compound 104] (H-CSASVECKQKCLKAIGSIFGKC[Nle]NKKCKCYPR-NH2; disulfide 1-22, 7-27, 11-29): the IC50 on Kv1.6 (setting [2]) was over 3000 nM; in test [1] (setting [3]), 0.12 nM; at Kv1.1 (setting [4]) it was over 3000 nM; at Kv1.2 (setting [5]), over 3000 nM; at Kv1.3 (setting [6]), 0.43 nM. For the same compound, the “Selectivity Kv1.6/Kv1.3” value at Kv1.6 is over 7000. For the same compound, at Kv1.1, the “Selectivity Kv1.1/Kv1.3” value is over 7000. For the same compound, the “Selectivity Kv1.2/Kv1.3” value on Kv1.2 (ratio IC50[Kv1.2]/IC50[Kv1.3]) is listed as over 7000.
Regarding `CC[C@H](C)[C@@H]1NC(=O)[C@H](C)NC(=O)[C@H](CCCCN)NC(=O)[C@H](CC(C)C)NC(=O)[C@@H]2CSSC[C@@H](C(=O)N[C@@H](Cc3ccc(O)cc3)C(=O)N3CCC[C@H]3C(=O)N[C@@H](CCCNC(=N)N)C(=O)O)NC(=O)[C@H](CCCCN)NC(=O)[C@@H]3CSSC[C@H](NC(=O)[C@H](CCC(=O)O)NC(=O)[C@H](C(C)C)NC(=O)[C@H](CO)NC(=O)[C@H](C)NC(=O)[C@H](CO)NC(=O)[C@@H](N)CSSC[C@H](NC(=O)[C@H](CCCCN)NC(=O)CNC(=O)[C@H](Cc4ccccc4)NC(=O)[C@H]([C@@H](C)CC)NC(=O)[C@H](CO)NC(=O)CNC1=O)C(=O)N[C@@H](CCSC)C(=O)N[C@@H](CC(N)=O)C(=O)N[C@@H](CCCCN)C(=O)N[C@@H](CCCCN)C(=O)N3)C(=O)N[C@@H](CCCCN)C(=O)N[C@@H](CCC(N)=O)C(=O)N[C@@H](CCCCN)C(=O)N2` [Compound 117] (H-CSASVECKQKCLKAIGSIFGKCMNKKCKCYPR-OH; disulfide 1-22, 7-27, 11-29), the IC50 is over 3000 nM at Kv1.6 (setting [2]); 1.5 nM in test [1] (setting [3]); over 3000 nM at Kv1.1 (setting [4]); 1830 nM on Kv1.2 (setting [5]); 2.09 nM at Kv1.3 (setting [6]). In addition, the “Selectivity Kv1.6/Kv1.3” value at Kv1.6 is recorded as over 1400. Further, the “Selectivity Kv1.1/Kv1.3” value at Kv1.1 is reported as over 1400.
